Assay results published in patent US20230310432A1 (JULIUS-MAXIMILIANS-UNIVERSITÄT WÜRZBURG, priority 2017, published 2023).

What was measured:
[1] = tested on: CD8+ T cells expressing a ROR1 CAR with 4-1BB costimulatory domain; assay: Bioluminescence-based cytotoxicity assay, K562/ROR1 target cells; format: cell-based, human
[2] = tested on: CD4+ T cells expressing a CD19 CAR with 4-1BB costimulation; assay: Multiplex cytokine analysis, co-culture with K562/CD19; format: cell-based, human; details: dasatinib ≥25 nM; 20 h; compared to non-dasatinib treated CAR-T cells
Protocol: A multiplex cytokine analysis was performed in supernatant removed from the co-culture.

[3] = tested on: CD8+ T cells expressing a ROR1 CAR with 4-1BB costimulatory domain; assay: CFSE proliferation assay, co-culture with K562/ROR1; format: cell-based, human; details: dasatinib ≥50 nM; 72 h
Protocol: (§1) Proliferation: T cells were labeled with 0.2 μM carboxyfluorescein succinimidyl ester (CFSE, Invitrogen), washed and plated in duplicate or triplicate wells with irradiated (80 Gy) stimulator cells at an E:T ratio of 4:1 (K562/ROR1, K562/CD19 or RCH-ACV). No exogenous cytokines were added to the culture medium. After a 72-hour incubation, cells were labeled with anti-CD3 mAb, and analyzed by flow cytometry to assess cell division of T cells.
(§2) CAR-T cells were labeled with CFSE and co-cultured with K562 that the inventors had transduced with either CD19 (for testing CD19 CAR-T cells) or ROR1 (for testing ROR1 CAR-T cells). Dasatinib was added to the assay medium at the beginning of the co-culture assay. Flow cytometric analyses were performed to determine the proliferation of T cells at the end of the co-culture assay.

[4] = tested on: ZAP70 at tyrosine 319; assay: Quantitative Western blot of phosphorylation in CD8+ CD19 CAR/4-1BB T cells; format: cell-based, human; details: 100 nM dasatinib; co-culture with RCH-ACV
[5] = tested on: CD8+ T cells expressing a CD19 CAR with CD28 costimulatory domain; assay: CFSE proliferation assay, co-culture with K562/CD19; format: cell-based, human; details: dasatinib ≥50 nM; 72 h
Protocol: as §1, §2

[6] = tested on: CD19 CAR/4-1BB-T cells; assay: Serum cytokine levels in NSG/Raji xenograft model (multiplex cytokine analysis); format: in vivo, NSG mice

Cc1nc(Nc2ncc(C(=O)Nc3c(C)cccc3Cl)s2)cc(N2CCN(CCO)CC2)n1 [dasatinib]
specific lysis of target cells ([1]; dasatinib 25 nM, up to t=5 h, 73% by non-dasatinib treated): less than 2%
specific lysis of target cells ([1]; dasatinib 50 nM, any given timepoint, 94% by non-dasatinib treated at t=10 h): less than 2%
reduction of production and secretion of GM-CSF, IFN-γ, IL-2, IL-4, IL-5, IL-6, IL-8 [2]: > 95%
residual proliferation compared to non-dasatinib treated CAR-T cells [3]: less than 7%
phosphorylation compared to CAR-T cells co-cultured in the absence of dasatinib [4]: 11.61%
residual proliferation compared to non-dasatinib treated CAR-T cells [5]: less than 7%
serum level of GM-CSF ([6]; day +1, CAR-T cells and dasatinib (CAR/+)): 6.4 pg/mL
serum level of IFN-γ ([6]; day +1, CAR/+): 13.4 pg/mL
serum level of IL-5 ([6]; day +1, CAR/+): 21.4 pg/mL
serum level of TNF-α ([6]; day +1, CAR/+): 0.04 pg/mL
serum level of GM-CSF ([6]; day +3, dasatinib discontinued): 45.8 pg/mL
serum level of IFN-γ ([6]; day +3, dasatinib discontinued): 411.8 pg/mL
serum level of IL-2 ([6]; day +3, dasatinib discontinued): 0.2 pg/mL
serum level of IL-5 ([6]; day +3, dasatinib discontinued): 331.2 pg/mL
serum level of IL-6 ([6]; day +3, dasatinib discontinued): 0.9 pg/mL
serum level of TNF-α ([6]; day +3, dasatinib discontinued): 0.9 pg/mL
